From patent US8461362B2, “Protein phosphatase 2A-activating agents” (The Ohio State University Research Foundation, priority 2009, dated 2013)

Experiments:
Assay type in all cases: cell-based
PP2A = target: T1, PP2A (Homo sapiens, UniProt P67775); test: PP2A immunoprecipitation phosphatase activity assay in drug-treated LNCaP cells; conditions: for PP2A phosphatase activity: LNCaP cells, 12 h drug exposure; for PP2A expression (protein level): after drug treatment, Western blot
T1 construct: endogenous in cells; host or cells: LNCaP
T1 sequence (P67775 whole entry): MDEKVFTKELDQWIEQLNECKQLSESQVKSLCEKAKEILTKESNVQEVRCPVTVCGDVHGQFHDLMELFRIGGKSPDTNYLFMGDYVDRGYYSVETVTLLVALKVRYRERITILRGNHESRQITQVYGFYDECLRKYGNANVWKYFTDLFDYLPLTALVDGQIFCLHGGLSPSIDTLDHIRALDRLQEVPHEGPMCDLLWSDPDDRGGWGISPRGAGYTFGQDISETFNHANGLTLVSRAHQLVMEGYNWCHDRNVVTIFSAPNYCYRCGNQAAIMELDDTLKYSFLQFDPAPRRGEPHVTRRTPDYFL
Experimental: PP2A activity in drug-treated cells was determined by using a PP2A Immunoprecipitation Phosphatase Assay Kit (Millipore) according to the manufacturer's instructions. LNCaP cells were exposed to DMSO, VES, or TS-1 at the indicated concentrations in 2.5% FBS supplemented medium for 12 h, and subjected to cell lysis in a phosphate-free lysis buffer containing 20 mmol/L imidazole-HCl, pH 7.0, 2 mM EDTA, 2 mM EGTA, 2 mM AEBSF, 1 mM EDTA, 130 μM bestatin, 14 μM E-64, 1 μM leupeptin, and 0.3 μM aprotinin. The suspension was sonicated (Virtis) at 20% output for 10 sec, followed by centrifugation at 2000×g for 5 min. One-μL aliquots of the supernatants were taken for protein determination by BCA assays, and the remaining supernatants were used for phosphatase activity assays. Aliquots of cell lysates containing 400 μg of proteins were combined with 4 μg of anti-PP2Ac antibody (Millipore), to which was added PP2A assay buffer (20 mmol/L Hepes pH 7.0, 100 mM NaCl) to a final volume of 500 μL followed by 40 μL of Protein A-agarose. Mixtures were incubated at 4° C. for 2 h, and briefly centrifuged. The immunocomplexes were washed and used for the phosphatase activity assay. The amounts of PP2A in the immunocomplexes were determined semi-quantitatively by Western blotting.

LNCaP cells = test: MTT viability assay, LNCaP cells
Experimental: LNCaP androgen-dependent (p53^+/+) and PC-3 androgen-nonresponsive (p53^−/−) prostate cancer cells were purchased from the American Type Culture Collection (Manassas, Va.), and cultured in RPMI 1640 medium containing 10% heat-inactivated FBS. […] All cell types were cultured at 37° C. in a humidified incubator containing 5% CO2. Cells in log phase growth were harvested by trypsinization for use in the MTT viability assay. LNCaP cells were plated in poly-D-lysine coated culture flasks in order to assist cell adherence to the surface. Prior to drug treatment, cells were plated in a density of 12,000 cells/cm^2 surface area in the respective culture medium for 24-48 h, followed by individual test agents in 2.5% FBS-supplemented RPMI medium.

AR mRNA in LNCaP cells = test: RT-PCR of AR mRNA in LNCaP cells; conditions: 10 μM
Experimental: (§1) RNA Isolation and Reverse Transcription (RT)-PCR.
(§2) LNCaP cells were subject to total RNA isolation by using a Trizol reagent (Invitrogen Corporation, CA). RNA concentrations were determined by measuring absorption at 260 nm in a spectrophotometer. Aliquots of 2 μg of total RNA from each sample were reverse transcribed to cDNAs using the iScript cDNA Synthesis Kit (Bio-Rad) according to the manufacturer's instructions. PCR products were resolved electrophoretically in 1.2% agarose gels and visualized by ethidium bromide staining.

AR promoter = test: AR promoter-luciferase reporter assay (hAR-Luc) in LNCaP cells; conditions: hAR-Luc transfected LNCaP cells, 72 h of exposure
Experimental: Transfection and Luciferase Assay.
Cells were transfected with 5 μg of the AR-linked luciferase reporter (hAR-Luc) plasmid in an Amaxa Nucleofector using a cell line-specific nucleofector kit according to the manufacturer's protocol (Amaxa Inc. Gaithersburg, Md.) and then seeded in T25 flasks at 3×10^5 cells per flask for 48 h. The transfection efficiency was determined by transfecting cells with 3 μg of pmaxGFP plasmid followed by fluorescence microscopy to detect green fluorescent protein expression. For each transfection, herpes simplex virus (HSV) thymidine kinase promoter-driven Renilla reniformis luciferase was used as an internal control for normalization. For the luciferase reporter gene assay, after transfection, cells were cultured in 24-well plates in 10% FBS-supplemented RPMI 1640 for 48 h, subjected to different treatments in 2.5% FBS-supplemented medium for the indicated times, collected, and lysed with passive lysis buffer (Promega). Aliquots of lysates (50 μL) were mixed with 75 μL of luciferase substrate (Promega) in 96-well plates, and luciferase activities were monitored in a MicroLumaPlus LB96V luminometer (Berthold Technologies, Oak Ridge, Tenn.) with the WinGlow software package. All transfection experiments were carried out in six replicates.

[1] = system: Sp1 binding to AR promoter; test: ChIP assay of Sp1 binding to AR promoter in LNCaP cells; conditions: 72 h
Experimental: Chromatin Immunoprecipitation (ChIP).
After drug treatment, LNCaP cells (2×10^7) in 50 mL of PBS were cross-linked with 1.35 mL of 37% formaldehyde (final concentration 1%) for 15 min at room temperature. Glycine solution (1 mol/L) was added to a final concentration of 125 mmol/L to stop the cross-linking reaction. Cells were harvested and washed twice with 5 mL of PBS, and the cell pellets were lysed in a ChIP lysis buffer containing (50 mM HEPES-KOH at pH 7.5, 140 mM NaCl, 1% Triton X-100, 0.1% sodium deoxycholate, 2 mM AEBSF, 1 mM EDTA, 130 μM bestatin, […], 1 μM leupeptin, and 0.3 μM aprotinin). The suspension was sonicated at 20% output in a Virsonic 300 sonicator with 6 sets of 10-sec pulses (resulting in an average fragment size of 0.8-0.2 kb) and centrifuged for 10 min at 15,000×g at 4° C. One-μL aliquots of the transparent supernatants were taken for determining protein concentrations by BCA assays. Immunoprecipitation was carried out as described above. Aliquots of 1 mg proteins were used for immunoprecipitation using 4 μg of anti-Sp1 antibody followed by protein A/G agarose beads. […]

[2] = system: Sp1 mRNA and Sp1 target genes VEGF, Mdm2, DNMT1; test: mRNA expression of Sp1 and Sp1 downstream target genes in LNCaP cells; conditions: for Sp1 mRNA expression: high doses
Experimental: as §1, §2

SMILES | PP2A phosphatase activity (PP2A) | PP2A expression (protein level) (PP2A) | cell viability of LNCaP cells (LNCaP cells) | AR mRNA transcript level (AR mRNA in LNCaP cells) | AR gene transcription (luciferase reporter activity) (AR promoter) | Sp1 binding to AR promoter [1] | transcription of Sp1 downstream target genes (VEGF, Mdm2, DNMT1) [2] | Sp1 mRNA expression [2]
Cc1c(C)c2c(c(C)c1OC(=O)CCC(=O)O)CCC(C)(CCCC(C)CCCC(C)C)O2 (stereo not shown) [TS-1, succinic acid mono-[2-(4,8-dimethyl-nonyl)-2,5,7,8-tetramethylchroman-6-yl]ester] | increase PP2A phosphatase activity | without affecting its expression | suppressing the cell viability | time-dependent reduction | dose-dependent inhibitory effect | diminished the Sp1 binding to AR promoter in a dose-dependent manner | dose-dependent transcriptional repression | remained unaltered
Cc1c(C)c2c(c(C)c1OC(=O)CCC(=O)O)CC[C@@](C)(CCC[C@H](C)CCC[C@H](C)CCCC(C)C)O2 [VES, α-tocopheryl succinate] | increase PP2A phosphatase activity | without affecting its expression | suppressing the cell viability | time-dependent reduction | dose-dependent inhibitory effect | diminished the Sp1 binding to AR promoter in a dose-dependent manner | dose-dependent transcriptional repression | remained unaltered
